Results: US12338256B2, “Aza-tetracyclic oxazepine compounds and uses thereof” (Genentech, Inc., priority 2022, dated 2025)

What was measured:
[1] = system: HPAC (homozygous mutant KRAS G12D human pancreatic cell line); experiment: KRAS 3D-Cell Proliferation Assay, HPAC (Example 503); format: cell-based; conditions: Homo sapiens, HPAC, 168 h, HPAC 3D culture, 7 days, CellTiter-Glo 3D; read-out: Prolif HPAC 3D ATP IC50
In short: (§1)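 Luminescent ATP readout (CellTiter-Glo 3D, with mechanical mixing) measures growth of cells cultured in 3D after a 7-day compound exposure at 37° C. Percent inhibition is referenced to vehicle (DMSO) and 1 μM staurosporine controls, and IC50 comes from a four-parameter Hill fit.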

[2] = system: H1975 (KRAS wild type human lung adenocarcinoma cell line); experiment: KRAS 3D-Cell Proliferation Assay, H1975 (Example 503); format: cell-based; conditions: Homo sapiens, NCI-H1975, 168 h, H1975 3D culture, 7 days, CellTiter-Glo 3D; read-out: Prolif H1975 3D ATP IC50
In short: as §1

SMILES	IC50 [1]	IC50 [2]
Cc1nc(N)cc(-c2nc3c4c(nc(OCC5(CN6CC7(C6)CC7(F)F)CC5)nc4c2F)N2C[C@H]4CC[C@H](N4)[C@H]2[C@H](C)O3)c1C(F)(F)F [Compound 277, 4-((5S,5aS,6S,9R)-12-((1-((1,1-difluoro-5-azaspiro[2.3]hexan-5-yl)methyl)cyclopropyl)methoxy)-1-fluoro-5-methyl-5a,6,7,8,9,10-hexahydro-5H-4-oxa-3,10a,11,13,14-pentaaza[6,9]methanonaphtho[1,8-ab]heptalene-2-yl)-6-methyl-5-(trifluoromethyl)pyridin-2-amine]	2.09 nM	974 nM
Cc1c(F)c(N)nc(-c2nc3c4c(nc(OC[C@@]56CCCN5CC5(CC5(F)F)C6)nc4c2F)N2C[C@H]4CC[C@H](N4)[C@H]2[C@H](C)O3)c1C(F)(F)F (stereo partly drawn) [Compound 192, 6-((5S,5aS,6S,9R)-12-(((7a′S)-2,2-Difluorodihydro-1′H,3′H-spiro[cyclopropane-1,2′-pyrrolizin]-7a′(5′H)-yl)methoxy)-1-fluoro-5-methyl-5a,6,7,8,9,10-hexahydro-5H-4-oxa-3,10a,11,13,14-pentaaza[6,9]methanonaphtho[1,8-ab]heptalene-2-yl)-3-fluoro-4-methyl-5-(trifluoromethyl)pyridin-2-amine]	7.17 nM	1280 nM
Cc1nc(N)c(F)c(-c2nc3c4c(nc(OCC5(CN6C[C@H]7C[C@@H]6CO7)CC5)nc4c2F)N2C[C@H]4CC[C@H](N4)[C@H]2[C@H](C)O3)c1C(F)(F)F [Compound 223, 4-((5S,5aS,6S,9R)-12-((1-(((1R,4R)-2-Oxa-5-azabicyclo[2.2.1]heptan-5-yl)methyl)cyclopropyl)methoxy)-1-fluoro-5-methyl-5a,6,7,8,9,10-hexahydro-5H-4-oxa-3,10a,11,13,14-pentaaza-6,9-methanonaphtho[1,8-ab]heptalene-2-yl)-3-fluoro-6-methyl-5-(trifluoromethyl)pyridin-2-amine]	6.46 nM	1230 nM
Cc1c(F)c(N)cc(-c2nc3c4c(nc(OC[C@@]56CCC(C)N5C[C@H](F)C6)nc4c2F)N2C[C@H]4CC[C@H](N4)[C@H]2[C@H](C)O3)c1C(F)(F)F (stereo partly drawn) [Compound 122, 2-fluoro-5-((5S,5aS,6S,9R)-1-fluoro-12-(((2R,7aS)-2-fluoro-5-methyltetrahydro-1H-pyrrolizin-7a(5H)-yl)methoxy)-5-methyl-5a,6,7,8,9,10-hexahydro-5H-4-oxa-3,10a,11,13,14-pentaaza-6,9-methanonaphtho[1,8-ab]heptalen-2-yl)-3-methyl-4-(trifluoromethyl)aniline]	1.84 nM	487 nM
Cc1c(F)c(N)cc(-c2nc3c4c(nc(OC[C@@]56CCCN5C[C@H](F)C6)nc4c2F)N2C[C@H]4CC[C@H](N4)[C@H]2[C@H](C(F)(F)F)O3)c1CC(F)F [Compound 250, 4-(2,2-Difluoroethyl)-2-fluoro-5-((5R,5aS,6S,9R)-1-fluoro-12-(((2R,7aS)-2-fluorotetrahydro-1H-pyrrolizin-7a(5H)-yl)methoxy)-5-(trifluoromethyl)-5a,6,7,8,9,10-hexahydro-5H-4-oxa-3,10a,11,13,14-pentaaza-6,9-methanonaphtho[1,8-ab]heptalene-2-yl)-3-methylaniline]	16.9 nM	994 nM
Cc1c(F)c(N)cc(-c2nc3c4c(nc(OCC5CC(F)C6CCCN56)nc4c2F)N2C[C@H]4CC[C@H](N4)[C@H]2[C@H](C)O3)c1C(F)(F)F (single isomer, unassigned) [160 (diast. 1)]	8.07 nM	1000 nM
Cc1c(F)c(N)cc(-c2nc3c4c(nc(OC[C@]56CCCN5C[C@H](F)[C@@H]6F)nc4c2F)N2C[C@H]4CC[C@H](N4)[C@H]2[C@H](C)O3)c1C(F)(F)F (single isomer, unassigned) [143 (isomer 1)]	4.72 nM	972 nM
Cc1c(F)c(N)cc(-c2nc3c4c(nc(OC[C@@H]5CC[C@H]6COCCN65)nc4c2F)N2C[C@H]4CC[C@H](N4)[C@H]2[C@H](C)O3)c1Cl [Compound 111, 4-Chloro-2-fluoro-5-((5S,5aS,6S,9R)-1-fluoro-12-(((6S,8aS)-hexahydro-1H-pyrrolo[2,1-c][1,4]oxazin-6-yl)methoxy)-5-methyl-5a,6,7,8,9,10-hexahydro-5H-4-oxa-3,10a,11,13,14-pentaaza-6,9-methanonaphtho[1,8-ab]heptalen-2-yl)-3-methylaniline]	14.1 nM	1840 nM
C[C@@H]1Oc2nc(-c3cc(N)ccc3C(F)(F)F)c(F)c3nc(OC[C@@]45CCCN4C[C@H](F)C5)nc(c23)N2C[C@H]3CC[C@H](N3)[C@@H]12 [Compound 72, 3-((5S,5aS,6S,9R)-1-Fluoro-12-(((2R,7aS)-2-fluorotetrahydro-1H-pyrrolizin-7a(5H)-yl)methoxy)-5-methyl-5a,6,7,8,9,10-hexahydro-5H-4-oxa-3,10a,11,13,14-pentaaza-6,9-methanonaphtho[1,8-ab]heptalen-2-yl)-4-(trifluoromethyl)aniline]	3.16 nM	1060 nM
Cc1cc(-c2nc3c4c(nc(OC[C@@]56CCCN5C[C@H](F)C6)nc4c2F)N2C[C@H]4CC[C@H](N4)[C@H]2[C@H](C)O3)c(F)c(N)n1 [Compound 177, 3-Fluoro-4-((5S,5aS,6S,9R)-1-fluoro-12-(((2R,7aS)-2-fluorotetrahydro-1H-pyrrolizin-7°(5H)-yl)methoxy)-5-methyl-5°,6,7,8,9,10-hexahydro-5H-4-oxa-3,10°,11,13,14-pentaaza-6,9-methanonaptho[1,8-ab]heptalen-2-yl)-6-methylpyridin-2-amine]	4450 nM	20000 nM
Cc1c(F)c(N)cc(-c2nc3c4c(nc(OC[C@@]5(CC(F)F)CCCN5C)nc4c2F)N2C[C@H]4CC[C@H](N4)[C@H]2[C@H](C)O3)c1C(F)(F)F (single isomer, unassigned) [150 (isomer 1)]	13.7 nM	3770 nM
Cc1c(F)c(N)cc(-c2nc3c4c(nc(OC[C@H]5[C@H](C#N)CCN5C)nc4c2F)N2C[C@H]4CC[C@H](N4)[C@H]2[C@H](C)O3)c1C(F)(F)F [Compound 161, (2R,3R)-2-((((5S,5aS,6S,9R)-2-(5-Amino-4° fluoro-3-methyl-2-(trifluoromethyl)°henyl)-1-fluoro-5-methyl-5a,6,7,8,9,10-hexahydro-5H-4-oxa-3,10a,11,13,14-pentaaza-6,9-methanonaphtho[1,8-ab]heptalen-12-yl)oxy)methyl)-1-methylpyrrolidine-3-carbonitrile]	68.9 nM	13000 nM
Cc1c(F)ccc(-c2nc3c4c(nc(OC[C@@]56CCCN5C[C@H](F)C6)nc4c2F)N2C[C@H]4CC[C@H](N4)[C@H]2[C@H](C)O3)c1C(F)(F)F [Compound 203, (5S,5aS,6S,9R)-1-fluoro-2-(4-fluoro-3-methyl-2-(trifluoromethyl)phenyl)-12-(((2R,7aS)-2-fluorotetrahydro-1H-pyrrolizin-7a(5H)-yl)methoxy)-5-methyl-5a,6,7,8,9,10-hexahydro-5H-4-oxa-3,10a,11,13,14-pentaaza-6,9-methanonaphtho[1,8-ab]heptalene]	520 nM	20000 nM
Cc1c(F)c(N)cc(-c2nc3c4c(nc(OCC56CCN5CC(F)(F)C6)nc4c2F)N2C[C@H]4CC[C@H](N4)[C@H]2[C@H](C(F)(F)F)O3)c1C(F)(F)F (mixture of isomers) [Compound 244, 5-((5R,5aS,6S,9R)-12-((3,3-Difluoro-1-azabicyclo[3.2.0]heptan-5-yl)methoxy)-1-fluoro-5-(trifluoromethyl)-5a,6,7,8,9,10-hexahydro-5H-4-oxa-3,10a,11,13,14-pentaaza-6,9-methanonaphtho[1,8-ab]heptalene-2-yl)-2-fluoro-3-methyl-4-(trifluoromethyl)aniline]	6.14 nM	258 nM
CO[C@@H]1CN(CC2(COc3nc4c5c(nc(-c6cc(N)nc(C)c6C(F)(F)F)c(F)c5n3)O[C@@H](C)[C@@H]3[C@@H]5CC[C@H](CN43)N5)CC2)C[C@@H]1F [Compound 290, 4-((5S,5aS,6S,9R)-1-fluoro-12-((1-(((3S,4R)-3-fluoro-4-methoxypyrrolidin-1-yl)methyl)cyclopropyl)methoxy)-5-methyl-5a,6,7,8,9,10-hexahydro-5H-4-oxa-3,10a,11,13,14-pentaaza-6,9-methanonaphtho[1,8-ab]heptalen-2-yl)-6-methyl-5-(trifluoromethyl)pyridin-2-amine]	2.53 nM	2780 nM
Cc1c(F)c(N)cc(-c2nc3c4c(nc(OCC56COCC5CCN6C)nc4c2F)N2CC4CCC(N4)C2C(C)O3)c1C(F)(F)F (single isomer, unassigned) [134 (isomer 2)]	7.45 nM	1940 nM
Cc1c(F)c(N)cc(-c2nc3c4c(nc(OCC5(CCF)CCCN5C)nc4c2F)N2CC4CCC(N4)C2C(C)O3)c1C(F)(F)F (single isomer, unassigned) [127 (isomer 2)]	57.5 nM	7970 nM
Cc1nc(N)cc(-c2nc3c4c(nc(OCC56C[C@@H](F)CN5C[C@H](F)C6)nc4c2F)N2C[C@H]4CC[C@H](N4)[C@H]2[C@H](C(F)(F)F)O3)c1C(F)(F)F [Compound 261, 4-((5R,5aS,6S,9R)-12-(((2R,6R)-2,6-Difluorotetrahydro-1H-pyrrolizin-7a(5H)-yl)methoxy)-1-fluoro-5-(trifluoromethyl)-5a,6,7,8,9,10-hexahydro-5H-4-oxa-3,10a,11,13,14-pentaaza-6,9-methanonaphtho[1,8-ab]heptalen-2-yl)-6-methyl-5-(trifluoromethyl)pyridin-2-amine]	107 nM	6100 nM
